In patent US9789111B2, “Casein kinase 1δ (CK 1δ) inhibitors” (Electrophoretics Limited, priority 2010, dated 2017):

Key:
ALK5/TGFBR1 = ALK5/TGFBR1 (Homo sapiens, UniProt P36897); experiment: kinase inhibition assay panel; type: biochemical
[1] = tested on: Tau phosphorylation in SH-SY5Y-TMHT cells; experiment: PhosphoTau SRM assay V2 and V3 (mass spectrometric); type: cell-based, human; conditions: for relative level of phosphorylation at each site (level of phosphopeptide) compared with vehicle treated controls / Tau phosphorylated at S396: 10 μM; for relative level of phosphorylation at each site (level of phosphopeptide) compared with vehicle treated controls: PhosphoTau SRM assay V2 and V3; for Tau phosphorylated at S396: vehicle control approximately 83%; for phosphorylation of Ser 396 within Tau proteins: FIG. 4
Description: The PhosphoTau SRM V2 assay measures total tau and relative phosphorylation levels at five of the most commonly studied sites on Tau and was obtained from Proteome Sciences plc (Cobham, England). None of the sites in the V2 assay is uniquely phosphorylated by CK1δ and there is a possibility that compound-induced inhibition of phosphorylation measured by this method may be achieved through promiscuous inhibition of other kinases such as GSK3b and/or CDK5. […] Table 1 lists the various sites covered and the candidate Tau kinases reported in Hanger et al. (2007).
SH-SY5Y-TMHT cells are kept in culture medium (DMEM medium, 10% FCS, 1% NEAA, 1% L-Glutamine, 100 μg/ml Gentamycin, 300 μg/ml Geneticin G-418) for 2 days until 80-90% confluency. Cells are then differentiated in culture medium supplemented with 10 μM retinoic acid (RA) for 7 days changing medium every 2 to 3 days. […] On day 8 post-differentiation, the test compounds, reference compounds and vehicle control were added to the culture medium. After 6 h of compound exposure one plate of cells is subjected to a MTT assay to evaluate the effect of test and reference items on cell viability. Remaining wells are washed once with cold PBS and harvested in 300 μl RIPA-Buffer [50 mM Tris pH 7.4, 1% Nonident P40, 0.25% Na-deoxy-cholate, 150 mM NaCl, 1 mM EDTA, 1 μM NaF, 1 μM Na-ortho-vanadate, 80 mM Glycerophosphate, supplemented with freshly added protease (Calbiochem) and phosphatase (Sigma) inhibitor cocktail]. The cell suspension is transferred into a 1.5 ml tube and additionally lysed by sonication on ice. An aliquot of 20 μl is taken for the determination of the protein concentration (BCA assay). Subsequently, the lysates are snap frozen and stored at −80° C. until shipment.
Stacking gels are loaded with approximately 100 μg total protein based on BCA assay results. Gels are run until the total protein content forms a single discrete band in the stacking gel. Each protein band is then cut from the gel and digested with either trypsin or Asp-N and analysed using the PhosphoTau SRM assay V2 or V3 respectively. Each assay method quantifies the phosphorylation in pre-clinical material using a triple quadrupole mass spectrometer (TSQ Vantage, Thermo Scientific, Hemel Hempstead, UK). Prior to SRM analysis phosphopeptides and pre-clinical samples were resolved by RP-chromatography (XBridge column, Waters, Manchester, UK) over a 9 minute gradient 0-30% ACN (buffer A; 0.1% FA, buffer B; ACN, 0.1% FA). Light and heavy versions for each peptide and phosphopeptide were monitored by several SRM transitions, using optimised S Lens values and collision energy settings. The area under the SRM LC peak was used to quantitate the amount of analyte present in each cell lysate as a single point reference to the signal of the heavy peptide spike.
An 11 point calibration curve of light phosphopeptides with each point in the curve spiked with 100 fmol heavy phosphopeptides was also produced to determine assay characteristics (LOD, LOQ, precision and accuracy). For each specified tau population, the endogenous level of each tau phosphopeptide was quantified against its calibration curve (0.25-1000 fmol on column). Prior to LC-SRM analysis each tau population was spiked with 100 fmol of the heavy phosphopeptide standards.

ALK4/ACVR1B = ALK4/ACVR1B (Homo sapiens, UniProt P36896); experiment: kinase inhibition assay panel; type: biochemical
ALK4/ACVR1B, sequence (P36896 24-505): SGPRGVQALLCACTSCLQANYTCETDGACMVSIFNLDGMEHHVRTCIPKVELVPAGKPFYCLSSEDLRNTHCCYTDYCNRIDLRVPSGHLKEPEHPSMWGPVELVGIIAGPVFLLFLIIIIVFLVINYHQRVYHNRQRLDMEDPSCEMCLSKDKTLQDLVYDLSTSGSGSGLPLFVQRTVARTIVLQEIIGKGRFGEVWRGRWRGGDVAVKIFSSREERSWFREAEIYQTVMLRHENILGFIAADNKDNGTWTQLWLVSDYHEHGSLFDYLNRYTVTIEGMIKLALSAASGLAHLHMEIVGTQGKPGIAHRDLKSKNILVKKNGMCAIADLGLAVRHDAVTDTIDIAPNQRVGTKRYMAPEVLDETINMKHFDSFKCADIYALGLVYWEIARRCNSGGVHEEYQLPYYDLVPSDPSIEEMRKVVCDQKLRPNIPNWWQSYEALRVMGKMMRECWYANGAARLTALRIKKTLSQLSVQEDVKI
Procedure: (§1) Base Reaction buffer; 20 mM Hepes (pH 7.5), 10 mM MgCl2, 1 mM EGTA, 0.02% Brij35, 0.02 mg/ml BSA, 0.1 mM Na3VO4, 2 mM DTT, 1% DMSO
(§2) It should be noted that required cofactors are added individually to each kinase reaction.
(§3) • 1. Prepare indicated substrate in freshly prepared Base Reaction Buffer as described above • 2. Deliver any required cofactors to the substrate solution • 3. Deliver indicated kinase into the substrate solution and gently mix • 4. Deliver compounds in DMSO into the kinase reaction mixture • 5. Deliver ^33P-ATP (specific activity 0.01 μCi/μl final) into the reaction mixture to initiate the reaction • 6. Incubate kinase reaction for 120 min. at room temperature • 7. Reactions are spotted onto P81 ion exchange paper (Whatman #3698-915) • 8. Wash filters extensively in 0.75% Phosphoric acid Kinase Information: • CK1δ—Genbank Accession # NP_620693 • Recombinant human full-length construct. GST-tagged, expressed in insect cells. • Final concentration in assay=4 nM • Substrate: CK1tide • Substrate sequence: [KRRRAL[pS]VASLPGL] • Final substrate concentration in assay=20 μM • It should be noted that no additional cofactors are added to the reaction mixture.

YES/YES1 = YES/YES1 (Homo sapiens, UniProt P07947); experiment: kinase inhibition assay panel; type: biochemical
YES/YES1, sequence (P07947 whole entry): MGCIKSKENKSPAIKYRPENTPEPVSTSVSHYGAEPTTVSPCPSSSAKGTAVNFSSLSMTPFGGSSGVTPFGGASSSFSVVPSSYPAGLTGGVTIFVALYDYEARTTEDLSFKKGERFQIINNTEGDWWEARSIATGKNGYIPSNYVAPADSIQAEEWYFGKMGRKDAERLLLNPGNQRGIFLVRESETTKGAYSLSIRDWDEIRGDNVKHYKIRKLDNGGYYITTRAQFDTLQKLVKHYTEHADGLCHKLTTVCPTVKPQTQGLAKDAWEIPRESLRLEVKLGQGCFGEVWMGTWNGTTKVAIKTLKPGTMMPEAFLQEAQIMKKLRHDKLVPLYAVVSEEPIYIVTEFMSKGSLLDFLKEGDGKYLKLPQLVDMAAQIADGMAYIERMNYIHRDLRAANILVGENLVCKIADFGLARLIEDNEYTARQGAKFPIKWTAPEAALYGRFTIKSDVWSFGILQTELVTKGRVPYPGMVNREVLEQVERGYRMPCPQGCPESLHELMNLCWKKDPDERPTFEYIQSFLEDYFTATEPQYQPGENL
Procedure: as §1, §2, §3

EPHA2 = EPHA2 (Homo sapiens, UniProt P29317); experiment: kinase inhibition assay panel; type: biochemical
EPHA2, sequence (P29317 24-976, species assumed): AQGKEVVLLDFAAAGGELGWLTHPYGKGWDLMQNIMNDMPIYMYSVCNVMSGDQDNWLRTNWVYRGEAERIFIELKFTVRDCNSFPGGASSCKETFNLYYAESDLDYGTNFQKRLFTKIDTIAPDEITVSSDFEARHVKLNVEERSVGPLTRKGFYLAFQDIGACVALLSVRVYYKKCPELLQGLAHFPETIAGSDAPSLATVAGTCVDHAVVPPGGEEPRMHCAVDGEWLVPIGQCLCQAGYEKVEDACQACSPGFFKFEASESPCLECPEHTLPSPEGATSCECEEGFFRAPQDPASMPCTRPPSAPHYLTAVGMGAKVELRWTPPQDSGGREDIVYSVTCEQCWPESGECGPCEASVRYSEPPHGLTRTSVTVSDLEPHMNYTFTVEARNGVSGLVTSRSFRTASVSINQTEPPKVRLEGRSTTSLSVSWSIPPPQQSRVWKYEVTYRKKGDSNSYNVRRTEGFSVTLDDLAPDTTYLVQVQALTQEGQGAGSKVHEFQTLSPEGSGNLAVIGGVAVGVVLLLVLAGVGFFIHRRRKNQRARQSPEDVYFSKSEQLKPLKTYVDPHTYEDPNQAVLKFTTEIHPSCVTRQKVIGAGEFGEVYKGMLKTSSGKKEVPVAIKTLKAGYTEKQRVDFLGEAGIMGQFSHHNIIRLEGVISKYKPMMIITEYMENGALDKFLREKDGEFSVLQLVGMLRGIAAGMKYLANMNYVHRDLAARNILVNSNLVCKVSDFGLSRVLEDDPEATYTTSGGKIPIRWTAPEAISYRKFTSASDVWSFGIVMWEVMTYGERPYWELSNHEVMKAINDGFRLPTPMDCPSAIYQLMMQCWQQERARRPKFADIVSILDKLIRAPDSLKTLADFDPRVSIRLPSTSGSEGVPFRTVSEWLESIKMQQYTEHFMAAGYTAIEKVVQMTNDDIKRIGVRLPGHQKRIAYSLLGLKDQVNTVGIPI
Procedure: as §1, §2, §3

RIPK2 = RIPK2 (Homo sapiens, UniProt O43353); experiment: kinase inhibition assay panel; type: biochemical
RIPK2, sequence (O43353 whole entry, species assumed): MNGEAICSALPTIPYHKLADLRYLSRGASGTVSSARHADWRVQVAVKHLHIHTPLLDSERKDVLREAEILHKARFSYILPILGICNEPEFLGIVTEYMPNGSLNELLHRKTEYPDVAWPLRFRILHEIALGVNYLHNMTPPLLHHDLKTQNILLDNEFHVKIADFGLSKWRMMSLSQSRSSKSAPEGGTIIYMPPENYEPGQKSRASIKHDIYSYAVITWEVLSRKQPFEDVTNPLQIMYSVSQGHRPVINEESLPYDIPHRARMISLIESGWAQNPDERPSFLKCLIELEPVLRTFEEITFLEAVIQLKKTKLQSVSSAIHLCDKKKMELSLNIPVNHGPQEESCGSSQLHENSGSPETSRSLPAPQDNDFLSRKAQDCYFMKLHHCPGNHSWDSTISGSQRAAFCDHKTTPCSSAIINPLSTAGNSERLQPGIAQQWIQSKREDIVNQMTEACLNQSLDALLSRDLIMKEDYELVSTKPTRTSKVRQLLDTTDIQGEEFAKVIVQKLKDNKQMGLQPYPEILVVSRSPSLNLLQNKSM
Procedure: as §1, §2, §3

PKA = PKA (Homo sapiens, UniProt P17612); experiment: kinase inhibition assay panel; type: biochemical
Procedure: as §1, §2, §3

CK1δ = biological target: T1, CK1δ (Homo sapiens, UniProt P48730); experiment: CK1δ inhibition assay (33P-ATP, CK1tide substrate); type: biochemical; conditions: range of kinase inhibition assays
T1 construct: Recombinant human full-length construct; GST; host or cells: insect cells
T1 sequence (P48730 1-409 isoform P48730-2): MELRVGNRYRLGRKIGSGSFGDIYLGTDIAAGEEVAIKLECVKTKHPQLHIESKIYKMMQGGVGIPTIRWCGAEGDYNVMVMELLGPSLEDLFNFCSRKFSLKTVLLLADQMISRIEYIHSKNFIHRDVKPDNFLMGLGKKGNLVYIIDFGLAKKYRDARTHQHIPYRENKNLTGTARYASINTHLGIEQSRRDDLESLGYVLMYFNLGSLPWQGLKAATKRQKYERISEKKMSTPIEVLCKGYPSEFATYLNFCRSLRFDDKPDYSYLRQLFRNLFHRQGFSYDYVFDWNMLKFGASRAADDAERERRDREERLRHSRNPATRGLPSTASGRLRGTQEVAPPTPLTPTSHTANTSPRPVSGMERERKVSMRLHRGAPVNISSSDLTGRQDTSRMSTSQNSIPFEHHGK
Procedure: The compounds of the invention may be tested for inhibition of casein kinase 1 delta (CK1δ) in accordance with the assay protocols described in US 2010/0152157, EP 1,636,375 or Hanger et al (2007) J. Biol. Chem. 282, 23645-23654. In particular, the assay was conducted in accordance with the following protocol:
as §1, §2, §3

CK1a1 = CK1a1 (Homo sapiens, UniProt P48729); experiment: kinase inhibition assay panel; type: biochemical
CK1a1, sequence (P48729 whole entry): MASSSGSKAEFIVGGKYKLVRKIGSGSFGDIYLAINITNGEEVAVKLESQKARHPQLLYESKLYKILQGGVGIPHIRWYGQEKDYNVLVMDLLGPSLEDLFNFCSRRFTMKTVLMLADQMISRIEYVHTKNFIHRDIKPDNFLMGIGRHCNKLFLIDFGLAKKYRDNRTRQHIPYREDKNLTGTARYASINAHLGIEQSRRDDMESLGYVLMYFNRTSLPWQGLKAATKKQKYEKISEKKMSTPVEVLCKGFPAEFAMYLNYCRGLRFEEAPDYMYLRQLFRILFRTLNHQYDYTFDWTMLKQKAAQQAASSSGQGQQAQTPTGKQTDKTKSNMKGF

CK1g2 = CK1g2 (Homo sapiens, UniProt P78368); experiment: kinase inhibition assay panel; type: biochemical
CK1g2, sequence (P78368 whole entry, species assumed): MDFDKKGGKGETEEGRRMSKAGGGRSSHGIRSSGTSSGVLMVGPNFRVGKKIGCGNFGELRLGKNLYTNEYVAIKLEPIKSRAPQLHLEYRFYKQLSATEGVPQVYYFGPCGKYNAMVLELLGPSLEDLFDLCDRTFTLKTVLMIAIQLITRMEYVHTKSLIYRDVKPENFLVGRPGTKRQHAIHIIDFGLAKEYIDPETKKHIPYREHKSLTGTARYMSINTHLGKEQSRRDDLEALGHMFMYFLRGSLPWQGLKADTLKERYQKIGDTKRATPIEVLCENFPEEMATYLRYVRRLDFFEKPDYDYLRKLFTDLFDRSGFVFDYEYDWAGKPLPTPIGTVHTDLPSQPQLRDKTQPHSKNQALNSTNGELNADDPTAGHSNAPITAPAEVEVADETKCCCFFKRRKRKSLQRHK

ALK5/TGFBR1, sequence (P36897 34-503): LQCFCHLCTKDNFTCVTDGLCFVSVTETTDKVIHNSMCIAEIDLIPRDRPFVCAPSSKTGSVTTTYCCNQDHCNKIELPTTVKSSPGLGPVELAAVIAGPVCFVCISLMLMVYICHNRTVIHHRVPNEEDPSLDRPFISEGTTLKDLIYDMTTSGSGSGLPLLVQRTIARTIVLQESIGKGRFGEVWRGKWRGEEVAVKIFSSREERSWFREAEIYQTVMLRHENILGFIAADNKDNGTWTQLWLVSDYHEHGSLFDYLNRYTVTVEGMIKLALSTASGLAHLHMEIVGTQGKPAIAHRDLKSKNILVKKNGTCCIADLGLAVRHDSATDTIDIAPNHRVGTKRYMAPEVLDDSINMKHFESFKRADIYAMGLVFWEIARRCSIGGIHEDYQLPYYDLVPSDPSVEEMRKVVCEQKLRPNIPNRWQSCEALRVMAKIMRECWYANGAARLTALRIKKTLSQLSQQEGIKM

inhibition of ALK5/TGFBR1 (ALK5/TGFBR1)	inhibition of ALK4/ACVR1B (ALK4/ACVR1B)	inhibition of YES/YES1 (YES/YES1)	inhibition of EPHA2 (EPHA2)	inhibition of RIPK2 (RIPK2)	inhibition of PKA (PKA)	inhibition of CK1a1 (CK1a1)	inhibition of CK1g2 (CK1g2)	SMILES	relative level of phosphorylation at each site (level of phosphopeptide) compared with vehicle treated controls [1]	Tau phosphorylated at S396 [1]	phosphorylation of Ser 396 within Tau proteins [1]	selectivity for CK1δ when compared with other kinases (CK1δ)
lower than 40%	lower than 40%	lower than 40%	lower than 40%	lower than 40%	lower than 40%	lower than 40%	–	Nc1ncc(-c2nc3ccccc3o2)c(-c2ccncc2)n1 [Compound 324, 5-(1,3-benzoxazol-2-yl)-4-(pyridin-4-yl)pyrimidin-2-amine]	distinct reduction	38%	inhibit phosphorylation	significant and selective inhibition for CK1δ
–	–	–	–	–	–	–	lower than 40%	NC(=O)c1c(N)c(C(=O)c2ccc(F)cc2)n2ccccc12 [Compound 987, 2-amino-3-[(4-fluorophenyl)carbonyl]indolizine-1-carboxamide]	distinct reduction	24%	inhibit phosphorylation	significant and selective inhibition for CK1δ
